Results published in patent US20210311024A1, “NON-CLINICAL TEST METHOD CHARACTERIZED BY QUANTITATIVE EVALUATION OF EXPERIMENTAL ANIMAL SPECIMEN” (Konica Minolta, Inc., priority 2016, published 2021).

Legend:
Assay type in all cases: in vivo
[1] = tested on: PDX mice each transplanted with the breast cancer tissue of one of six patients (A to F); test: Lapatinib drug efficacy in PDX mice selected for low CD140a score, Example 4; conditions: three mice per group selected for low CD140a score; 100 mg/kg i.v. twice a day, 42 times; 21 days after first administration
Method: PDX mice each transplanted with the breast cancer tissue (volume: about 200 mm^3) of one of six patients (A to F), which were the same as those used in Example 1, were purchased, five mice for each of the patients. These PDX mice were reared, and the size of the tumor in each mouse was measured every 3 or 4 days. When the tumor volume reached 500 mm^3, tumor tissue was collected from each mouse using a scalpel.
The observation and image capture of the immunostained images and the stained images for morphological observation were carried out in the same manner as in Example 1, to measure the PID score or the DAB score of CD140a. […]
To each of the thus selected three PDX mice, in each group, 100 mg/kg of lapatinib (trade name: Tykerb) was administered intravenously twice a day, for a total of 42 times, in the same manner as in Example 1, and the tumor volume was measured before the first administration, and 21 days after the first administration. […] The collected tissue sections were used for the quantification of the expression level of HER2 protein as the target protein, in the same manner as in Example 1.

[2] = tested on: PDX mice each transplanted with the breast cancer tissue of one of six patients (A to F); test: Lapatinib drug efficacy (tumor volume) in breast cancer PDX mice, Example 1; conditions: 100 mg/kg i.v. twice a day, 42 times; for Tumor size (size at the start of administration is taken as 100%): 21 days after first administration
Method: To each of these PDX mice, 100 mg/kg of lapatinib (Trade name: Tykerb) was administered intravenously twice a day, for a total of 42 times. The measurement of the tumor volume was carried out before the administration and 21 days after the first administration. At the same time, a tissue section was collected from each mouse using a frozen needle, at each time point. The collected tissue sections were subjected to a formalin fixation treatment and a paraffin-embedding treatment, and then sliced to prepare sample slides, according to conventional methods. The thus prepared sample slides were used for the quantification of the expression level of HER2 as the target protein.

[3] = tested on: hemato-lymphoid humanized model mice transplanted with tumor tissue of lung cancer patients; test: Nivolumab drug efficacy in hemato-lymphoid humanized model mice transplanted with lung cancer tissue, Example 5; conditions: 100 mg/kg i.v. twice a day, 42 times; 21 days after first administration
Text: Hemato-lymphoid humanized mice, produced by transplanting human hematopoietic stem cells into mice with acquired immune deficiency, were transplanted with tumor tissue, to prepare hemato-lymphoid humanized model mice, which are one type of patient-derived tumor-transplanted mice. Tumor tissues collected from six lung cancer patients were purchased from SofiaBio, and the thus produced hemato-lymphoid humanized mice were each subcutaneously transplanted with the tumor tissue, having a size of 2 mm square, of one of the patients (five mice transplanted with the tumor tissue of one patient were produced for each of the patients). To each of the model mice whose tumor tissue had grown to the size of about 300 mm^3 one month after the transplantation, 100 mg/kg of an anti-human PD-1 monoclonal antibody preparation, nivolumab (trade name: Opdivo) was administered intravenously twice a day, for a total of 42 times. In the same manner as in Example 1, the tumor volume was measured before the first administration and 21 days after the first administration. At the same time, a tissue section was collected from each of the mice, and sample slides were prepared in the same manner as in Example 1. […]

Molecule | drug efficacy (effect of reducing the tumor size) in relation to PID score of HER2 protein [1] | Tumor size (size at the start of administration is taken as 100%) ([2]; Sample A (PID score 10, DAB score — before administration)) [%] | Tumor size (size at the start of administration is taken as 100%) ([2]; Sample B (PID score 30, DAB score 1+ before administration)) [%] | Tumor size (size at the start of administration is taken as 100%) ([2]; Sample C (PID score 100, DAB score 2+ before administration)) [%] | Tumor size (size at the start of administration is taken as 100%) ([2]; Sample D (PID score 200, DAB score 3+ before administration)) [%] | Tumor size (size at the start of administration is taken as 100%) ([2]; Sample E (PID score 400, DAB score 3+ before administration)) [%] | Tumor size (size at the start of administration is taken as 100%) ([2]; Sample F (PID score 800, DAB score 3+ before administration)) [%] | drug efficacy (effect of reducing the tumor size) in relation to PID score ([2]; among the PDX mice having the same DAB score of 3+) | drug efficacy (effect of reducing the tumor size) in relation to PID score of PD-L1 protein [3]
CS(=O)(=O)CCNCc1ccc(-c2ccc3ncnc(Nc4ccc(OCc5cccc(F)c5)c(Cl)c4)c3c2)o1 [Lapatinib, lapatinib] | increased drug efficacy (effect of reducing the tumor size) of lapatinib tend to be observed in a PDX mouse having a higher PID score of HER2 protein | 180 | 120 | 80 | 70 | 60 | 10 | increased drug efficacy (effect of reducing the tumor size) of lapatinib tend to be observed in a PDX mouse having a higher PID score | –
nivolumab | – | – | – | – | – | – | – | – | increased drug efficacy (effect of reducing the tumor size) of nivolumab tend to be observed in a PDX mouse having a higher PID score of PD-L1 protein
